For assay [1], the target named is T1, α4β1 integrin (Jurkat cell adhesion to immobilized CS-1 derived peptide CLHPGEILDVPST) (Homo sapiens, UniProt P05556+P13612).
T1 construct: 100 μl of Jurkat cells (2.5×10^6 cells/ml) in DMEM plus BSA; host or cells: Jurkat T-cell line
The assay can be described thus: Jurkat-CS-1 assay. To be noted: Jurkat cells on CS-1 peptide coated plates; read-out: JK/CS-1 (Jurkat CS-1 Assay IC50 value range). The assay is classed as cell-based. How it is done:
The CS-1 derived peptide, CLHPGEILDVPST, and the scrambled control peptide, CLHGPIELVSDPT, were synthesized on a Beckman 990 synthesizer using t-Boc methodology. The peptides were immobilized onto microtiter plates using the heterobifunctional crosslinker 3-(2-pyridyldithio)propionic acid N-hydroxysuccinimide ester (SPDP) as reported by Pierschbacher et al., Proc. Natl. Acad. USA, 80:1224-1227 (1983). Microtiter plates were coated with 20 μg/ml HSA for 2 hr. at room temperature, washed once with PBS and derivatized with 10 μg/ml SPDP for 1 hr. After washing, 100 μl of a 100 μg/ml cysteine containing peptide solution which had been recently dissolved was added to the wells and allowed to crosslink to the plates overnight at 4° C. Unbound peptide was removed from plates by washing with PBS. To block non-reacted sites, the plates are coated with 100 μl of a 2.5 mg/ml BSA solution in PBS for 1 hr. at 37° C. 100 μl of Jurkat cells (2.5×10^6 cells/ml) in DMEM plus BSA (2.5 mg/ml) was mixed with an appropriate concentration of the compound to be tested and the mixture was added to peptide coated dishes and incubated for 1 hr. at 37° C. Generally 100, 20, 5 and 1.25 μM concentrations of the compound were tested.
Following this incubation the plates were washed once with PBS and the attached cells were fixed with 3% paraformaldehyde in PBS and stained with 0.5% toluidine blue in 3.7% formaldehyde. The cells were stained overnight at room temperature and the optical density at 590 nm of toluidine blue stained cells was determined using a vertical pathway spectrophotometer to quantitate attachment (VMAX Kinetic Microplate Reader, Molecular Devices, Menlo Park, Calif.). This procedure is a modification of a previously published method (Cardarelli et al, J. Biol. Chem., 269:18668-18673 (1994) and Cardarelli et al, Proc. Natl. Acad. Sci. USA, 83:2647-2651 (1986)).

Assay [2] addresses T2, α4β1 integrin (Jurkat T-cell adhesion to IL-1 stimulated endothelial cell monolayers) (Homo sapiens, UniProt P05556+P13612).
T2 construct: a T-cell line, Jurkat, known to express the α4β1 integrin; host or cells: Jurkat T-cell line
The assay can be described thus: Jurkat-endothelial cell adhesion assay (Jurkat EC). The assay is classed as cell-based. The following applies: Jurkat cells on IL-1 stimulated human umbilical vein endothelial cells; read-out: JK/EC (Jurkat EC Assay IC50 value range). The protocol:
Jurkat-endothelial Cell Adhesion Assay:
The following assay established the activity of the present compounds in inhibiting β1-mediated cell adhesion in a representative in vitro system. This assay measures the adhesive interactions of a T-cell line, Jurkat, known to express the α4β1 integrin, to endothelial monolayers in the presence of test compounds. The test compounds were added in increasing concentrations to T-cells and then the T-cell compound mixture was added to IL-1 stimulated endothelial cell monolayers. The plates were incubated, washed and the percentage of attached cells was quantitated.
Human umbilical vein endothelial cells were purchased from Clonetics (San Diego, Calif.) at passage number 2. The cells were grown on 0.5% porcine skin gelatin pre-coated flasks (Sigma, St. Louis Mo.) in EGM-UV media (Clonetics, San Diego, Calif.) supplemented with 10% fetal bovine serum. Cells are refed every 2-3 days reaching confluence by day 4 to 6. […] The endothelial cells are not used following passage 6.
The T-cell line Jurkat was obtained from American Type Tissue Culture Collection (Rockville, Md.) and the cells were cultured in RPMI containing 10% fetal calf serum. The cells were washed twice in Hank's Balanced Salt Solution (HBSS) and resuspended in Dulbecco's Minimal Eagle's Media (DMEM) containing 2.5 mg/ml Human Serum Albumin (HSA). Jurkat cells (1×10^6 cells/ml) were stained with 10 ng/ml BCECF-AM (Molecular Probes, Eugene, Oreg.)) in HBSS without phenol red. The cells were loaded with BCECF for 60 minutes in the dark at 370C, washed 2 times, and resuspended in DMEM-HSA solution.
Confluent endothelial monolayers, grown in 96-well tissue culture plates, were stimulated for 4 hr. at 37° C. with 0.1 ng/ml (˜50 U/ml) recombinant IL-1 (Amgen, Thousand Oaks, Calif.). Following this incubation, the monolayers were washed twice with HBSS and 0.1 ml of DMEM−HSA solution was added. Jurkat cells (5×10^5 cells) were combined with the appropriate concentration of the test compound and 0.1 ml of the Jurkat cell-compound mixture was added to the endothelial cell monolayers. Generally, 100, 20, 5 and 1.25 μM compound concentrations were tested. […] The plates were placed on ice for 5 minutes to allow for Jurkat cell settling and the plates were incubated at 37° C. for 20 minutes. Following this incubation, the monolayers were washed twice with PBS containing 1 mM calcium chloride and 1 mM magnesium chloride and the plates were read using a Millipore Cytofluor 2300 (Marlboro, Mass.). Fluorescence in each well was measured as Arbitrary Fluorescence Units and percent adhesion in the absence of compound was adjusted to 100% and the % adhesion in the presence of compound was calculated. Monolayers were also fixed in 3% paraformaldehyde and evaluated microscopically to verify the adhesion. This procedure is a modification of a previously published method (Cardarelli et al., J. Biol. Chem. 269:18668-18673 (1994)).

T1 sequence (P13612 34-1032): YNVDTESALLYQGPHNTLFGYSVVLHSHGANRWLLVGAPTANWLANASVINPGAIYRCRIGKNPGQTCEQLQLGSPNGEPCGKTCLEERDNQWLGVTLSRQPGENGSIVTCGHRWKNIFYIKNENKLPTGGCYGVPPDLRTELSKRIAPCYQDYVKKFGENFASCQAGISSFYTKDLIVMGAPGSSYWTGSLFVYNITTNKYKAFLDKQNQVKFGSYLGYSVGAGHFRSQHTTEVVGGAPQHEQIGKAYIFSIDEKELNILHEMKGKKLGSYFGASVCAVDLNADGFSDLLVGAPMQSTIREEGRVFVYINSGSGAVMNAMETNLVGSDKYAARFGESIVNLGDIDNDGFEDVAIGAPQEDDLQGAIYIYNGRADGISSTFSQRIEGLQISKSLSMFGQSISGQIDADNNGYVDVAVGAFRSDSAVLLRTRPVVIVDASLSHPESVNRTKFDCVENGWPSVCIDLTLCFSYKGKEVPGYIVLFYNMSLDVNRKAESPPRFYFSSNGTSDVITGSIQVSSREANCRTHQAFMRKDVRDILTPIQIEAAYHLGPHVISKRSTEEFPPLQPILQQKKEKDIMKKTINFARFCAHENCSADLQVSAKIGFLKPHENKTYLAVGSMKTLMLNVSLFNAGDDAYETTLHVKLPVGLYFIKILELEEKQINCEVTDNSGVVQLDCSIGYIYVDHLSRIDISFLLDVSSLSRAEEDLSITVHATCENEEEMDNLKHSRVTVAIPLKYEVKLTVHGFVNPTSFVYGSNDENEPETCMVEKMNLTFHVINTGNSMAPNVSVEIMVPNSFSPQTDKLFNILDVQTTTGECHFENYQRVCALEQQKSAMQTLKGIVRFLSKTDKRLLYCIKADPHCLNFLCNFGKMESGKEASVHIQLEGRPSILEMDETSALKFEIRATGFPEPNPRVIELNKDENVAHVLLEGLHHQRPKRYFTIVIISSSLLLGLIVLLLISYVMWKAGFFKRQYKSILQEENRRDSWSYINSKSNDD
T1 sequence (P05556 21-798): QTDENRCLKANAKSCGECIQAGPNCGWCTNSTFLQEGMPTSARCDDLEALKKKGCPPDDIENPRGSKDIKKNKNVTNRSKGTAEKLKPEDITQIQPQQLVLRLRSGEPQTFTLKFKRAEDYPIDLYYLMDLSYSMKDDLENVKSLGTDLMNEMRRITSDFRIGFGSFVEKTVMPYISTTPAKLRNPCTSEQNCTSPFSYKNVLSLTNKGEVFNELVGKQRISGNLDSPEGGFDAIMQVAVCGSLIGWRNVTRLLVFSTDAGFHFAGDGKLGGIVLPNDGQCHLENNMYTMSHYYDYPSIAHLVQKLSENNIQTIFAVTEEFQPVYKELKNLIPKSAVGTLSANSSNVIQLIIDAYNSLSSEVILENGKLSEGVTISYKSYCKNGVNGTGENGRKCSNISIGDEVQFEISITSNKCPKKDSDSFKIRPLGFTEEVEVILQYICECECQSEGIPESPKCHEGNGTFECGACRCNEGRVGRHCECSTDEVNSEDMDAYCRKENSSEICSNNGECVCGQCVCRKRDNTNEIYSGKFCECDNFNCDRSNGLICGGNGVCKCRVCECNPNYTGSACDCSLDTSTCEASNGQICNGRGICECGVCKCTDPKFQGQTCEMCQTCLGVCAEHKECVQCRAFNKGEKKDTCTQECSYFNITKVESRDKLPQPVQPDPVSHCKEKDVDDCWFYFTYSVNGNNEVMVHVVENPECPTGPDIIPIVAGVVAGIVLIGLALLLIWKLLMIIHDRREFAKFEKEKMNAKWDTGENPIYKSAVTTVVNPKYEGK
T2 sequence (P13612 34-1032): as the sequence (P13612 34-1032) above
T2 sequence (P05556 21-798): as the sequence (P05556 21-798) above

Turning to `COC(=O)[C@H](Cc1ccc(NC(=O)c2c(Cl)cccc2Cl)cc1)NC(=O)[C@@H]1COCN1C(=O)OCc1ccccc1` [Example 124, [S-(R*,R*)]-4-[[[1-[[4-[(2,6-Dichlorobenzoyl)amino]phenyl]methyl]-2-methoxy-2-oxoethyl]amino]carbonyl]-3-oxazolidinecarboxylic Acid 3-Phenylmethyl Ester], the IC50 in assay [1] was not below 750 nM; in assay [2], not below 1000 nM.

As to `CCOC(=O)N1CSC(C)(C)[C@@H]1C(=O)N[C@@H](Cc1ccc(NC(=O)c2c(Cl)cccc2Cl)cc1)C(=O)O` (relative stereo) [Example 31, [S-(R*,R*)]-4-[[[1-Carboxy-2-[4-[(2,6-dichlorobenzoyl)amino]phenyl]ethyl]amino]carbonyl]-5,5-dimethyl-3-thiazolidinecarboxylic Acid 3-Ethyl Ester], the IC50 in assay [1] was not above 50 nM; in assay [2] it was not above 250 nM.

As to `CCOC(=O)N1CSC[C@H]1C(=O)N[C@@H](Cc1ccc(NC(=O)c2c(Cl)cccc2Cl)cc1)C(=O)O` (relative stereo) [Example 16, [R-(R*,S*)]-4-[[[1-Carboxy-2-[4-[(2,6-dichlorobenzoyl)amino]phenyl]ethyl]amino]carbonyl]-3-thiazolidinecarboxylic Acid 3-Ethyl Ester], the IC50 is 50 to 750 nM in assay [1] and not above 250 nM in assay [2].

Turning to `O=C(Nc1ccc(C[C@H](NC(=O)[C@@H]2CCCCN2C(=O)c2ccc([N+](=O)[O-])o2)C(=O)O)cc1)c1c(Cl)cccc1Cl` [Example 191], the IC50 in assay [1] is 50 to 750 nM; in assay [2] it was not below 1000 nM.

For `O=C(O)c1ccc(NC(=O)N2CCC[C@H]2C(=O)N[C@@H](Cc2ccc(NC(=O)c3c(Cl)cccc3Cl)cc2)C(=O)O)cc1` [Example 238], the IC50 is 50 to 750 nM in assay [1] and not below 1000 nM in assay [2].

As to `O=C(O)/C=C\C(=O)N1CCC[C@H]1C(=O)N[C@@H](Cc1ccc(NC(=O)c2c(Cl)cccc2Cl)cc1)C(=O)O` [Example 227], the IC50 in assay [1] was 50 to 750 nM; in assay [2], not below 1000 nM.

On to `O=C(O)c1cccc(C(=O)N2CCC[C@@H]2C(=O)N[C@@H](Cc2ccc(NC(=O)c3c(Cl)cccc3Cl)cc2)C(=O)O)n1` [Example 258], for which the IC50 is not above 50 nM in assay [1] and not above 250 nM in assay [2].

`CCOC(=O)N1[C@@H](C(=O)N[C@@H](Cc2ccc(NC(=O)c3c(Cl)cccc3Cl)cc2)C(=O)O)C(C)(C)SC1(C)C` (relative stereo) [Example 82, [S-(R*,R*)]-4-[[[1-Carboxy-2-[4-[(2,6-dichlorobenzoyl)amino]phenyl]ethyl]amino]carbonyl]-2,2,5,5-tetramethyl-3-thiazolidinecarboxylic Acid 3-Ethyl Ester]: the IC50 in assay [1] was 50 to 750 nM; in assay [2], 250 to 1000 nM.

Consider `COC(=O)[C@H](Cc1ccc(OCc2c(Cl)cccc2Cl)cc1)NC(=O)CCC1(C(=O)O)CCC(=O)N1` (stereo partly drawn) [Example 116, 2-[3-[[(1S)-1-[[4-[(2,6-Dichlorophenyl)methoxy]phenyl]methyl]-2-methoxy-2-oxoethyl]amino]-3-oxopropyl]-5-oxoproline], for which the IC50 in assay [1] was not below 750 nM; in assay [2], not below 1000 nM.

Turning to `COC(=O)[C@H](Cc1ccc(NC(=O)c2c(Cl)cccc2Cl)cc1)NC(=O)[C@H]1CSCN1S(=O)(=O)c1ccc(C(F)(F)F)cn1` [Example 44, 4-[(2,6-Dichlorobenzoyl)amino]-N-[[(4S)-3-[[5-(trifluoromethyl)-2-pyridinyl]sulfonyl]-4-thiazolidinyl]carbonyl]-L-phenylalanine Methyl Ester], the IC50 in assay [1] was not below 750 nM; in assay [2], not below 1000 nM.

Take `CC(=O)CCC(=O)N1CCC(C(=O)N[C@@H](Cc2ccc(NC(=O)c3c(Cl)cccc3Cl)cc2)C(=O)O)CC1` [Example 216]: the IC50 is 50 to 750 nM in assay [1] and not below 1000 nM in assay [2].

For `O=C(Nc1ccc(C[C@H](NC(=O)[C@@H]2CCCCN2C(=O)C2NC(C(=O)O)CS2)C(=O)O)cc1)c1c(Cl)cccc1Cl` (stereo partly shown) [Example 190], the IC50 in assay [1] lay in the range of 50 to 750 nM; in assay [2] it was 250 to 1000 nM.

Regarding `CCOC(=O)N1CSC[C@@H]1C(=O)N[C@@H](Cc1ccc(OCc2c(Cl)cccc2Cl)cc1)C(=O)OC` (relative stereo) [Example 34, [S-(R*,R*)]-4-[[[1-[4-[(2,6-Dichlorophenyl)methoxy]phenylmethyl]-2-methoxy-2-oxoethyl]amino]carbonyl]-3-thiazolidinecarboxylic Acid 3-Ethyl Ester], the results for the IC50 in assay [1] and in assay [2] were 50 to 750 nM and not below 1000 nM, respectively.

As to `CC(C)(C)OC(=O)N1CSC[C@@H]1C(=O)N[C@@H](Cc1ccc(OCc2c(Cl)cccc2Cl)c(Cl)n1)C(=O)O` [Example 119, [S-(R*,R*)]-4-[[1-Carboxy-2-[[2-Chloro-3-[(2,6-dichlorophenyl)methoxy]-6-pyridyl]ethyl]amino]carbonyl]-3-thiazolidinecarboxylic Acid (1,1-Dimethylethyl)ester], the IC50 was not below 750 nM in assay [1] and not below 1000 nM in assay [2].

Turning to `O=C(Nc1ccc(C[C@H](NC(=O)[C@H]2CSCN2C(=O)OCc2ccccc2)C(=O)O)cc1)c1c(Cl)cccc1Cl` (relative stereo) [Example 21, [S-(R*,R*)]-4-[[[1-Carboxy-2-[4-[(2,6-dichlorobenzoyl)amino]phenyl]ethyl]amino]carbonyl]-3-thiazolidinecarboxylic Acid 3-Phenylmethyl Ester], the values for the IC50 in assay [1] and in assay [2] were 50 to 750 nM and not above 250 nM, respectively.

For `COC(=O)[C@H](Cc1ccc(NC(=O)c2c(Cl)cccc2Cl)cc1)NC(=O)[C@H]1CSCN1C(=O)OCCN1CCOCC1` (relative stereo) [Example 24, [S-(R*,R*)]-4-[[[1-[[4-[(2,6-Dichlorobenzoyl)amino]phenyl]methyl]-2-methoxy-2-oxoethyl]amino]carbonyl]-3-thiazolidinecarboxylic Acid 3-[2-(4-Morpholinyl)ethyl]ester], the IC50 in assay [1] was 50 to 750 nM; in assay [2], 250 to 1000 nM.

Consider `C[C@H](c1ccccc1)N1[C@H](C(=O)O)C[C@H]1C(=O)N[C@@H](Cc1ccc(NC(=O)c2c(Cl)cccc2Cl)cc1)C(=O)O` [Example 137, [2S-[1(S*),2α,4β(R*)]]-4-[[[1-Carboxy-2-[4-[(2,6-dichlorobenzoyl)amino]phenyl]ethyl]-amino]carbonyl]-1-(1-phenylethyl)-2-azetidinecarboxylic Acid], for which the IC50 in assay [1] was in the range of 50 to 750 nM; in assay [2], 250 to 1000 nM.

Source of the values: US6685617B1, “Inhibitors of α4β1 mediated cell adhesion” (Pharmacia & Upjohn Company, priority 1998, dated 2004).
